Legend:
[1] = target: T1, Aldehyde dehydrogenase 1A1 (Homo sapiens) (UniProt P00352); assay: Inhibition of full length recombinant human ALDH1A1 expressed in Escherichia coli BL21(DE3) assessed as remaining dehydrogenase activity by measuring NAD(P)H level at 10 uM preincubated for 2 mins followed by addition of propionaldehyde as substrate in presence of NAD+ by spectrophotometric method
T1 sequence (whole entry): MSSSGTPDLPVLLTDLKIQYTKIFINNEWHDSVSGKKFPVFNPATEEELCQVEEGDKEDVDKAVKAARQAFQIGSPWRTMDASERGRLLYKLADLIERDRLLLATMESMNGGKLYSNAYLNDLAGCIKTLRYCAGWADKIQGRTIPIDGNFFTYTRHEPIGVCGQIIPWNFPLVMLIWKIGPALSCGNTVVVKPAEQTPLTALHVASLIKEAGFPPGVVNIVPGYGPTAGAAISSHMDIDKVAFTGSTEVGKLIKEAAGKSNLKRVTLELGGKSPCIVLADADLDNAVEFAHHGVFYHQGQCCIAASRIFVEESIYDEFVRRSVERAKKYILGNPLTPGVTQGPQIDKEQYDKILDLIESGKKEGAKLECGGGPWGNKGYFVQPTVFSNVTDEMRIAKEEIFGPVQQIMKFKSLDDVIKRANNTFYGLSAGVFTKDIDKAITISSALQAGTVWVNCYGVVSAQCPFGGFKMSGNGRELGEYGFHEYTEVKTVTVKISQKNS

[2] = target: T2, Aldehyde dehydrogenase, dimeric NADP-preferring (Homo sapiens) (UniProt P30838); assay: Inhibition of full length recombinant human ALDH3A1 expressed in Escherichia coli BL21(DE3) assessed as remaining dehydrogenase activity by measuring NAD(P)H level at 10 uM preincubated for 2 mins followed by addition of propionaldehyde as substrate in presence of NAD+ by spectrophotometric method
T2 sequence (whole entry): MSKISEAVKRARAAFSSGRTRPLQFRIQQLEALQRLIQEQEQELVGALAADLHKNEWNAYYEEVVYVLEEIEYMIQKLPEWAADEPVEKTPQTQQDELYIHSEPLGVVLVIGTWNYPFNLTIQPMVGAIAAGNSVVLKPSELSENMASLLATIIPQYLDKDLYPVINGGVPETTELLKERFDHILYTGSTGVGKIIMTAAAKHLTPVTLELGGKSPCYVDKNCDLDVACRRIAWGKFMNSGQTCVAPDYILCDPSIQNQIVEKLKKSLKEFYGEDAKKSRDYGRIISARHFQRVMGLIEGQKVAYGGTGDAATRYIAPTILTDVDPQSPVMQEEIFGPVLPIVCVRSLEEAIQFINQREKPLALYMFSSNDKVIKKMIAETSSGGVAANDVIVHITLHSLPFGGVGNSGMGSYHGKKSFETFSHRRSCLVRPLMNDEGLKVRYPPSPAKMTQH

[3] = Lipophilicity, log P of the compound; format: physicochemical; settings: octanol/water
[4] = target: T3, Aldehyde dehydrogenase, mitochondrial (Homo sapiens) (UniProt P05091); assay: Inhibition of full length recombinant human ALDH2 expressed in Escherichia coli assessed as remaining dehydrogenase activity by measuring NAD(P)H level at 10 uM preincubated for 2 mins followed by addition of propionaldehyde as substrate in presence of NAD+ by spectrophotometric method
T3 sequence (whole entry): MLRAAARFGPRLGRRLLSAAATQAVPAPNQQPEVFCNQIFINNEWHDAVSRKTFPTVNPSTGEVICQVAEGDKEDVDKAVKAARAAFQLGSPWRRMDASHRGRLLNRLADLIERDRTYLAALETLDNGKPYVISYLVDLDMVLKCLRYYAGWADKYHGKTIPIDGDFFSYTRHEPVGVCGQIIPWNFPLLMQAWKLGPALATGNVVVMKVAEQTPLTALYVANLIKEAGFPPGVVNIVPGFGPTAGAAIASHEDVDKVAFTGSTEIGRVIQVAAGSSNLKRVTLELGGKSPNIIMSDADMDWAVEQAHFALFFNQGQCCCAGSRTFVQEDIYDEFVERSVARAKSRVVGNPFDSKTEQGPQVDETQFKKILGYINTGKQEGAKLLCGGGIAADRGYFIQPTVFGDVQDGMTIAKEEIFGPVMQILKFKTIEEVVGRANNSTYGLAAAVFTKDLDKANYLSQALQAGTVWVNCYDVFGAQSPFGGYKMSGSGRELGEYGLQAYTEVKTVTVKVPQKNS

[5] = target: T4, Aldehyde dehydrogenase 1A1 (Homo sapiens, UniProt P00352)
T4 sequence (P00352 whole entry): T1 sequence (whole entry)
Description: Inhibition of full length recombinant human ALDH1A1 expressed in Escherichia coli BL21(DE3) assessed as reduction in dehydrogenase activity by measuring NAD(P)H level preincubated for 2 mins followed by addition of propionaldehyde as substrate in presence of NAD+ by spectrophotometric method

[6] = target: T5, Aldehyde dehydrogenase, dimeric NADP-preferring (Homo sapiens, UniProt P30838); assay: Inhibition of full length recombinant human ALDH3A1 expressed in Escherichia coli BL21(DE3) assessed as reduction in dehydrogenase activity by measuring NAD(P)H level preincubated for 2 mins followed by addition of benzaldehyde as substrate in presence of NADP+ by spectrophotometric method
T5 sequence (P30838 whole entry): T2 sequence (whole entry)

[7] = target: T6, Aldehyde dehydrogenase, mitochondrial (Homo sapiens, UniProt P05091)
T6 sequence (P05091 whole entry): T3 sequence (whole entry)
Description: Inhibition of full length recombinant human ALDH2 expressed in Escherichia coli assessed as reduction in dehydrogenase activity by measuring NAD(P)H level preincubated for 2 mins followed by addition of propionaldehyde as substrate in presence of NAD+ by spectrophotometric method

Row | Compound | Activity [1] | Activity [2] | logP [3] | Activity [4] | IC50 [5] | IC50 [6] | IC50 [7]
1 | COc1ccc2c(C)cc(=O)oc2c1 [HYMECROMONE METHYL ETHER] | 80.2% | 36.4% | 2.46 | 94.8% | – | – | –
2 | CC(=O)C(C)Oc1ccc2c(c1)oc(=O)c1ccccc12 (stereo not drawn) | 58.7% | 103% | 2.64 | 64.4% | – | – | –
3 | Cc1cc(=O)oc2cc(OCC(N)=O)ccc12 | 28.5% | 67.1% | 1.71 | 89.5% | – | – | –
4 | C=CCOc1ccc2c(C)cc(=O)oc2c1 | 35.5% | 9.46% | 3.01 | 94.6% | – | – | –
5 | Cc1c(C)c2cc3c(-c4ccccc4)coc3cc2oc1=O | 87.4% | 88.9% | 4.8 | 92.8% | – | – | –
6 | Cc1oc2cc3oc(=O)c4ccccc4c3cc2c1C | 82.4% | 93.4% | 3.89 | 42.2% | Not Active | Not Active | 150 nM
7 | Cc1c(C)c2cc3c(C(C)(C)C)coc3cc2oc1=O | 94.5% | 87% | 3.94 | 69.7% | – | – | –
8 | CC(=O)C(C)Oc1ccc2c(C)cc(=O)oc2c1 (stereo not drawn) | 68.7% | 101% | 1.72 | 94.4% | – | – | –
9 | Cc1c(C)c2c(cc(C)c3c(C)coc32)oc1=O | 71.5% | 98.1% | 3.92 | 46.4% | Not Active | Not Active | 150 nM
10 | Cc1cc2oc(=O)cc(C)c2cc1NC(=O)C(C)C | 59.8% | 105% | 2.05 | 96.3% | – | – | –
11 | Cc1cc(=O)oc2cc(OC(C)C(=O)O)ccc12 (stereo not drawn) | 97.5% | 93.9% | 1.63 | 99.3% | – | – | –
12 | Cc1oc2cc3oc(=O)c(CCC(=O)NCc4ccccc4)c(C)c3cc2c1C | 93.6% | 68.3% | 4.52 | 69.8% | – | – | –
13 | CC(C)=CCOc1ccc2c(C)cc(=O)oc2c1 | 37.3% | 23.7% | 3.94 | 93.3% | – | – | –
14 | Cc1c(C)c2cc3c(=O)ccoc3c(C)c2oc1=O | 67.4% | 79.2% | 2.1 | 80.2% | – | – | –
15 | CC(=O)COc1ccc2c(C)cc(=O)oc2c1 | 52.2% | 64.1% | 1.37 | 99.1% | – | – | –
16 | Cc1oc2c(C)c3oc(=O)c(C)c(C)c3cc2c1C | 78.4% | 102% | 4.36 | 87.2% | – | – | –
17 | CC(=O)C(C)Oc1ccc2ccc(=O)oc2c1 (stereo not drawn) | 91.4% | 106% | 1.4 | 93.3% | – | – | –
18 | Cc1coc2cc3oc(=O)c(Cc4ccccc4)c(C)c3cc12 | 58.5% | 90.3% | 4.98 | 83.6% | – | – | –
19 | Cc1oc2cc3oc(=O)cc(Cc4ccccc4)c3cc2c1C | 57% | 81.6% | 4.8 | 73.7% | – | – | –
20 | Cc1c(C)c2cc3c4c(oc3cc2oc1=O)CCCC4 | 64.3% | 96.1% | 4.48 | 61.3% | – | – | –
21 | Cc1cc(=O)oc2cc(OCC(=O)c3ccccc3)ccc12 | 29% | 67.1% | 3.19 | 97.8% | – | – | –
22 | Cc1c(CCC(=O)O)c(=O)oc2cc(O)ccc12 | 96.6% | 105% | 1.82 | 101% | – | – | –
23 | Cc1cc(=O)oc2cc(OCC(=O)Nc3ccccc3)ccc12 | 49.6% | 95.5% | 2.85 | 95% | – | – | –

From ChEMBL document CHEMBL4007427, “Inhibition of the Aldehyde Dehydrogenase 1/2 Family by Psoralen and Coumarin Derivatives” (J Med Chem, 2017)
